The values that follow are results of earlier work, collected in patent US20040101542A1, “Skin care composition with retinyl ester as vitamin a propionate retinyl palmitate d-alpha tocopherol rice amino acids and liposomes and method of application” (priority 2003, published 2004).

The conditions of the data set: at 24 hours.

On to `CC1=C(/C=C/C(C)=C/C=C/C(C)=C/C(=O)O)C(C)(C)CCC1` [retinoic acid], for which the “uptake and distribution in the deeper skin strata, liposomal formulations versus solutions or emulsions” value was 3-4 times higher.
